Target: Aβ42 (Homo sapiens, UniProt P05067)
Assay: Th-T (thioflavin-T) assay of Aβ42 aggregation
Type: biochemical
Conditions: for Th-T assay plate reading, mean of three wells (Supplementary Fig. 47): source data, Ab alone and No Ab as controls

Aβ42, sequence (P05067 672-713): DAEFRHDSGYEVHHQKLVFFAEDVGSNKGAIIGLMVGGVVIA

Th-T fluorescence, mean of three wells (Aβ42 aggregation time course, reading M117): 2.674
Th-T fluorescence, mean of three wells (Aβ42 aggregation time course, reading M118): 2.686
Th-T fluorescence, mean of three wells (Aβ42 aggregation time course, reading M119): 2.671
Th-T fluorescence, mean of three wells (Aβ42 aggregation time course, reading M120): 2.6965
Th-T fluorescence, mean of three wells (Aβ42 aggregation time course, reading M121): 2.686
Th-T fluorescence, mean of three wells (Aβ42 aggregation time course, reading M122): 2.656
Th-T fluorescence, mean of three wells (Aβ42 aggregation time course, reading M123): 2.683
Th-T fluorescence, mean of three wells (Aβ42 aggregation time course, reading M124): 2.652
Th-T fluorescence, mean of three wells (Aβ42 aggregation time course, reading M125): 2.669
Th-T fluorescence, mean of three wells (Aβ42 aggregation time course, reading M126): 2.668
Th-T fluorescence, mean of three wells (Aβ42 aggregation time course, reading M127): 2.67
Th-T fluorescence, mean of three wells (Aβ42 aggregation time course, reading M128): 2.643
Th-T fluorescence, mean of three wells (Aβ42 aggregation time course, reading M129): 2.642
Th-T fluorescence, mean of three wells (Aβ42 aggregation time course, reading M130): 2.649
Th-T fluorescence, mean of three wells (Aβ42 aggregation time course, reading M131): 2.67
Th-T fluorescence, mean of three wells (Aβ42 aggregation time course, reading M132): 2.65
Th-T fluorescence, mean of three wells (Aβ42 aggregation time course, reading M133): 2.648
Th-T fluorescence, mean of three wells (Aβ42 aggregation time course, reading M134): 2.64
Th-T fluorescence, mean of three wells (Aβ42 aggregation time course, reading M135): 2.652
Th-T fluorescence, mean of three wells (Aβ42 aggregation time course, reading M136): 2.674
Th-T fluorescence, mean of three wells (Supplementary Fig. 47, reading M137): 2.698
Th-T fluorescence, mean of three wells (Supplementary Fig. 47, reading M138): 2.649
Th-T fluorescence, mean of three wells (Supplementary Fig. 47, reading M139): 2.636
Th-T fluorescence, mean of three wells (Supplementary Fig. 47, reading M140): 2.665
Th-T fluorescence, mean of three wells (Supplementary Fig. 47, reading M141): 2.631
Th-T fluorescence, mean of three wells (Supplementary Fig. 47, reading M142): 2.63
Th-T fluorescence, mean of three wells (Supplementary Fig. 47, reading M143): 2.626
Th-T fluorescence, mean of three wells (Supplementary Fig. 47, reading M144): 2.617
Th-T fluorescence, mean of three wells (Supplementary Fig. 47, reading M145): 2.644
Th-T fluorescence, mean of three wells (Supplementary Fig. 47 source data, measurement M37 of time course): 2.596
Th-T fluorescence, mean of three wells (Supplementary Fig. 47 source data, measurement M38 of time course): 2.604
Th-T fluorescence, mean of three wells (Supplementary Fig. 47 source data, measurement M39 of time course): 2.6132
Th-T fluorescence, mean of three wells (Supplementary Fig. 47 source data, measurement M40 of time course): 2.619
Th-T fluorescence, mean of three wells (Supplementary Fig. 47 source data, measurement M41 of time course): 2.62
Th-T fluorescence, mean of three wells (Supplementary Fig. 47 source data, measurement M42 of time course): 2.62
Th-T fluorescence, mean of three wells (Supplementary Fig. 47 source data, measurement M43 of time course): 2.6737
Th-T fluorescence, mean of three wells (Supplementary Fig. 47 source data, measurement M44 of time course): 2.6589
Th-T fluorescence, mean of three wells (Supplementary Fig. 47 source data, measurement M45 of time course): 2.678
Th-T fluorescence, mean of three wells (Supplementary Fig. 47 source data, measurement M46 of time course): 2.668
Th-T fluorescence, mean of three wells (Supplementary Fig. 47 source data, measurement M47 of time course): 2.664
Th-T fluorescence, mean of three wells (Supplementary Fig. 47 source data, measurement M48 of time course): 2.673
Th-T fluorescence, mean of three wells (Supplementary Fig. 47 source data, measurement M49 of time course): 2.687
Th-T fluorescence, mean of three wells (Supplementary Fig. 47 source data, measurement M50 of time course): 2.7097
Th-T fluorescence, mean of three wells (Supplementary Fig. 47 source data, measurement M51 of time course): 2.667
Th-T fluorescence, mean of three wells (Supplementary Fig. 47 source data, measurement M52 of time course): 2.696
Th-T fluorescence, mean of three wells (Supplementary Fig. 47 source data, measurement M53 of time course): 2.692
Th-T fluorescence, mean of three wells (Supplementary Fig. 47 source data, measurement M54 of time course): 2.717
Th-T fluorescence, mean of three wells (Supplementary Fig. 47 source data, measurement M55 of time course): 2.693
Th-T fluorescence, mean of three wells (Supplementary Fig. 47 source data, measurement M56 of time course): 2.698
Th-T assay plate reading, mean of three wells (Supplementary Fig. 47) (measurement M1): 0.28
Th-T assay plate reading, mean of three wells (Supplementary Fig. 47) (measurement M2): 0.2885
Th-T assay plate reading, mean of three wells (Supplementary Fig. 47) (measurement M3): 0.3145
Th-T assay plate reading, mean of three wells (Supplementary Fig. 47) (measurement M4): 0.3563
Th-T assay plate reading, mean of three wells (Supplementary Fig. 47) (measurement M5): 0.4309
Th-T assay plate reading, mean of three wells (Supplementary Fig. 47) (measurement M6): 0.5173
Th-T assay plate reading, mean of three wells (Supplementary Fig. 47) (measurement M7): 0.5869
Th-T assay plate reading, mean of three wells (Supplementary Fig. 47) (measurement M8): 0.6432
Th-T assay plate reading, mean of three wells (Supplementary Fig. 47) (measurement M9): 0.6839
Th-T assay plate reading, mean of three wells (Supplementary Fig. 47) (measurement M10): 0.7213
Th-T assay plate reading, mean of three wells (Supplementary Fig. 47) (measurement M11): 0.7671
Th-T assay plate reading, mean of three wells (Supplementary Fig. 47) (measurement M12): 0.8255
Th-T assay plate reading, mean of three wells (Supplementary Fig. 47) (measurement M13): 0.9138
Th-T assay plate reading, mean of three wells (Supplementary Fig. 47) (measurement M14): 1.049
Th-T assay plate reading, mean of three wells (Supplementary Fig. 47) (measurement M15): 1.273
Th-T assay plate reading, mean of three wells (Supplementary Fig. 47) (measurement M16): 1.57
Th-T fluorescence, mean of three wells (reading M17, Supplementary Fig. 47 source data): 1.838
Th-T fluorescence, mean of three wells (reading M18, Supplementary Fig. 47 source data): 2.054
Th-T fluorescence, mean of three wells (reading M19, Supplementary Fig. 47 source data): 2.206
Th-T fluorescence, mean of three wells (reading M20, Supplementary Fig. 47 source data): 2.312
Th-T fluorescence, mean of three wells (reading M21, Supplementary Fig. 47 source data): 2.3414
Th-T fluorescence, mean of three wells (reading M22, Supplementary Fig. 47 source data): 2.381
Th-T fluorescence, mean of three wells (reading M23, Supplementary Fig. 47 source data): 2.384
Th-T fluorescence, mean of three wells (reading M24, Supplementary Fig. 47 source data): 2.421
Th-T fluorescence, mean of three wells (reading M25, Supplementary Fig. 47 source data): 2.421
Th-T fluorescence, mean of three wells (reading M26, Supplementary Fig. 47 source data): 2.4278
Th-T fluorescence, mean of three wells (reading M27, Supplementary Fig. 47 source data): 2.452
Th-T fluorescence, mean of three wells (reading M28, Supplementary Fig. 47 source data): 2.461
Th-T fluorescence, mean of three wells (reading M29, Supplementary Fig. 47 source data): 2.478
Th-T fluorescence, mean of three wells (reading M30, Supplementary Fig. 47 source data): 2.514
Th-T fluorescence, mean of three wells (reading M31, Supplementary Fig. 47 source data): 2.5151
Th-T fluorescence, mean of three wells (reading M32, Supplementary Fig. 47 source data): 2.555
Th-T fluorescence, mean of three wells (reading M33, Supplementary Fig. 47 source data): 2.5475
Th-T fluorescence, mean of three wells (reading M34, Supplementary Fig. 47 source data): 2.566
Th-T fluorescence, mean of three wells (reading M35, Supplementary Fig. 47 source data): 2.566
Th-T fluorescence, mean of three wells (reading M36, Supplementary Fig. 47 source data): 2.598
Th-T fluorescence, mean of three wells (time course, reading M57): 2.692
Th-T fluorescence, mean of three wells (time course, reading M58): 2.694
Th-T fluorescence, mean of three wells (time course, reading M59): 2.7314
Th-T fluorescence, mean of three wells (time course, reading M60): 2.723
Th-T fluorescence, mean of three wells (time course, reading M61): 2.703
Th-T fluorescence, mean of three wells (time course, reading M62): 2.708
Th-T fluorescence, mean of three wells (time course, reading M63): 2.7
Th-T fluorescence, mean of three wells (time course, reading M64): 2.715
Th-T fluorescence, mean of three wells (time course, reading M65): 2.696
Th-T fluorescence, mean of three wells (time course, reading M66): 2.7072
Th-T fluorescence, mean of three wells (time course, reading M67): 2.703
Th-T fluorescence, mean of three wells (time-course reading M97, Supplementary Fig. 47 source data): 2.693
Th-T fluorescence, mean of three wells (time-course reading M98, Supplementary Fig. 47 source data): 2.706
Th-T fluorescence, mean of three wells (time-course reading M99, Supplementary Fig. 47 source data): 2.707
Th-T fluorescence, mean of three wells (time-course reading M100, Supplementary Fig. 47 source data): 2.682
Th-T fluorescence, mean of three wells (time-course reading M101, Supplementary Fig. 47 source data): 2.67
Th-T fluorescence, mean of three wells (time-course reading M102, Supplementary Fig. 47 source data): 2.671
Th-T fluorescence, mean of three wells (time-course reading M103, Supplementary Fig. 47 source data): 2.705
Th-T fluorescence, mean of three wells (time-course reading M104, Supplementary Fig. 47 source data): 2.674
Th-T fluorescence, mean of three wells (time-course reading M105, Supplementary Fig. 47 source data): 2.704
Th-T fluorescence, mean of three wells (time-course reading M106, Supplementary Fig. 47 source data): 2.676
Th-T fluorescence, mean of three wells (time-course reading M107, Supplementary Fig. 47 source data): 2.6621
Th-T fluorescence, mean of three wells (time-course reading M108, Supplementary Fig. 47 source data): 2.675
Th-T fluorescence, mean of three wells (time-course reading M109, Supplementary Fig. 47 source data): 2.6837
Th-T fluorescence, mean of three wells (time-course reading M110, Supplementary Fig. 47 source data): 2.682
Th-T fluorescence, mean of three wells (time-course reading M111, Supplementary Fig. 47 source data): 2.679
Th-T fluorescence, mean of three wells (time-course reading M112, Supplementary Fig. 47 source data): 2.691
Th-T fluorescence, mean of three wells (time-course reading M113, Supplementary Fig. 47 source data): 2.675
Th-T fluorescence, mean of three wells (time-course reading M114, Supplementary Fig. 47 source data): 2.674
Th-T fluorescence, mean of three wells (time-course reading M115, Supplementary Fig. 47 source data): 2.688
Th-T fluorescence, mean of three wells (time-course reading M116, Supplementary Fig. 47 source data): 2.67
SMILES: C=C1CC[C@H]2[C@]3(C)C[C@@H](C=C(C)C)O[C@H]3CC[C@]2(C)[C@@H]1Cc1c(O)c(C)c(C)oc1=O [Compound 5, subglutinol A]

From article PMC7156458, “Synthetic biology based construction of biological activity-related library of fungal decalin-containing diterpenoid pyrones” (Nature Communications, 2020)
